The values that follow come from ChEMBL document CHEMBL1121443, “Role of iodine in thyroid hormones: molecular conformation of a halogen-free hormone analogue” (1980).

Experiment [1] can be described thus: In vivo percentage antigoiter activity of compound was determined. The class given is functional, Rattus norvegicus. On the set-up: concentration or dose not given beside the values.
Experiment [2] can be described thus: In vitro percentage thymocyte activity of compound was determined in rat. It is filed as functional. On the set-up: concentration or dose not given beside the values.
For experiment [3], the target named is T1, Thyroxine-binding globulin (Homo sapiens) (UniProt P05543).
T1 sequence (whole entry): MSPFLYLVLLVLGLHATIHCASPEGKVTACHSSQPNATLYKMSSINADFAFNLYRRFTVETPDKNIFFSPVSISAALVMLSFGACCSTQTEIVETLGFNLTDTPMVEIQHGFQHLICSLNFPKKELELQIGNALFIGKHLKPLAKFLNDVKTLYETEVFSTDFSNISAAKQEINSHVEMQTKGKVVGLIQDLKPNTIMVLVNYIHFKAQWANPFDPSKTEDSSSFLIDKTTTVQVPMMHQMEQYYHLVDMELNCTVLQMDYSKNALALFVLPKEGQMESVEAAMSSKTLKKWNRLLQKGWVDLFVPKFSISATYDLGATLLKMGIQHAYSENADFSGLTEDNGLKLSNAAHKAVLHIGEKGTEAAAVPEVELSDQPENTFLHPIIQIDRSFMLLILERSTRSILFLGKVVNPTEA
The experiment is described as follows: Percentage thyroxine-binding globulin (TBG) binding activity of compound was determined in human serum. The class given is cell-free.

Another experiment is filed under the species Rattus norvegicus. Description: In vitro binding affinity of compound to the rat Hepatic nuclear protein receptors was determined.
In experiment [4] the target is T1, Thyroxine-binding globulin (Homo sapiens). Description: Percentage thyroxine-binding globulin binding activity of compound was determined in human serum. The class given is cell-free.

As to `Cc1cc(Oc2c(C)cc(CC(N)C(=O)O)cc2C)ccc1O` (centres undefined), the Activity in experiment [1] is 0.36%; in experiment [2] it was 23%; in experiment [3] it was 0%; in the experiment filed under Rattus norvegicus it was 0.1%.

For the compound `N[C@@H](Cc1cc(I)c(Oc2ccc(O)c(I)c2)c(I)c1)C(=O)O` [LIOTHYRONINE], the figures for the Activity in experiment [1], in experiment [2] and in experiment [3] were 100%, 100% and 9%, respectively.

Consider `Cc1cc(Oc2c(C)cc(CC(N)C(=O)O)cc2C)cc(C)c1O` (centres undefined), for which the Activity in experiment [1] turned out to be 0.54%; in experiment [2], 23%; in experiment [3], 0%; in the experiment listed under Rattus norvegicus, 0.1%.

As for `N[C@@H](Cc1cc(I)c(Oc2cc(I)c(O)c(I)c2)c(I)c1)C(=O)O` [LEVOTHYROXINE], the Activity worked out at 18% in experiment [1], 100% in experiment [4], 30% in experiment [2] and 12.5% in the experiment filed under Rattus norvegicus.

`Cc1cc(CC(N)C(=O)O)cc(C)c1Oc1ccc(O)c(C(C)C)c1` (centres undefined): the Activity came to 3.6% in experiment [1], 48% in experiment [2], 0.05% in experiment [3] and 0.7% in the experiment filed under Rattus norvegicus.
